In ChEMBL document CHEMBL1629513, “Synthesis, characterization, antiamoebic activity and cytotoxicity of novel 2-(quinolin-8-yloxy) acetohydrazones and their cyclized products (1,2,3-thiadiazole and 1,2,3-selenadiazole derivatives)” (Eur J Med Chem, 2010) one finds IC50 and viability data, which are given here for 19 compounds.

For one series, the system named is MCF7. Description: Cytotoxicity against human MCF7 cells after 48 hrs by MTT assay. Format: cell-based. The settings on record: MCF7, 48 h.
Series [1] is described as follows: Cytotoxicity against human MCF7 cells assessed as cell viability up to 100 uM after 48 hrs by MTT assay. The settings on record: read-out: Activity. It counts as cell-based. Background: Tetrazolium dyes change colour on reduction, which living cells bring about.
A further series relates to Entamoeba histolytica. The experiment in a line: Antiamoebic activity against Entamoeba histolytica HM-1:IMSS after 72 hrs by microdilution assay. Format: functional, organism-based. A general note: Dilution methods test growth across graded concentrations, often in twofold steps.
Series [2] in a line: Cytotoxicity against human MCF7 cells assessed as cell viability at 1.56 to 50 uM after 48 hrs by MTT assay. The following applies: read-out: Activity. It counts as cell-based.

Molecules are shown by their SMILES. Where only a bound is given, the exact number is not on record here.

In general, IC50 refers to the concentration that inhibits the measured activity by half. `C/C(=N\NC(=O)COc1cccc2cccnc12)c1ccccc1`: the IC50 in the series on MCF7 was greater than 100 µM; in the series on Entamoeba histolytica, 0.03 µM. Also, the viability at 48 h in series [1] came to 100%.

On to `C/C(=N\NC(=O)COc1cccc2cccnc12)c1ccc(Br)cc1`, for which the IC50 in the series on MCF7 is greater than 100 µM; with Entamoeba histolytica it was 0.04 µM. Further, the viability at 48 h in series [1] was 100%.

For `C/C(=N\NC(=O)COc1cccc2cccnc12)c1ccc(Cl)cc1`, the results for the IC50 with MCF7 and in the series on Entamoeba histolytica were greater than 100 µM and 0.04 µM, respectively. Moreover, the viability at 48 h in series [1] stood at 100%.

As for `C/C(=N\NC(=O)COc1cccc2cccnc12)c1ccccn1`, the figures for the 50% inhibitory concentration (IC50) with MCF7 and with Entamoeba histolytica were greater than 100 µM and 0.05 µM, respectively. Further, the viability at 48 h in series [1] is 100%.

On to `C/C(=N\NC(=O)COc1cccc2cccnc12)c1ccco1`, for which the results for the IC50 in the series with MCF7 and in the series with Entamoeba histolytica were greater than 100 µM and 0.05 µM, respectively. Moreover, the viability at 48 h in series [1] worked out at 100%.

As to `C/C(=N\NC(=O)COc1cccc2cccnc12)c1cccs1`, the values for the half-maximal inhibitory concentration (IC50) in the series with MCF7 and in the series with Entamoeba histolytica were greater than 100 µM and 0.08 µM, respectively. Besides, the viability at 48 h in series [1] is 88%.

Consider `Brc1ccc(-c2csnn2)cc1`, for which the IC50 in the series on MCF7 stood at 68.1 µM; in the series on Entamoeba histolytica, 0.24 µM. Moreover, the viability at 48 h in series [1] is 68%.

Regarding `Clc1ccc(-c2csnn2)cc1`, the IC50 in the series with MCF7 was greater than 100 µM; with Entamoeba histolytica, 0.39 µM.

Turning to `c1ccc(-c2csnn2)nc1`, the midpoint of inhibition in the series on Entamoeba histolytica, the IC50, lay at 5.46 µM. This counts as single-digit micromolar.

Turning to `c1coc(-c2csnn2)c1`, the IC50 in the series on MCF7 came out at 95.1 µM; with Entamoeba histolytica it was 0.23 µM.

Regarding `c1csc(-c2csnn2)c1`, the half-inhibitory concentration (IC50) came to 66.9 µM in the series on MCF7 and 2.25 µM in the series on Entamoeba histolytica.

In turn, `c1ccc(-c2c[se]nn2)cc1` had a half-inhibitory concentration (IC50) in the series with Entamoeba histolytica of 4.56 µM.

Regarding `Brc1ccc(-c2c[se]nn2)cc1`, the IC50 with Entamoeba histolytica came out at 2.95 µM. This IC50 lies about 1.5-fold lower than the previous one.

As for `Clc1ccc(-c2c[se]nn2)cc1`, the IC50 was 57.1 µM in the series with MCF7 and 0.58 µM in the series with Entamoeba histolytica. In addition, in series [1], the viability at 48 h is 57%. Besides, the viability at 48 h, up to 50 µM in series [2] is 66%.

On to `c1ccc(-c2c[se]nn2)nc1`, for which the IC50 in the series with MCF7 was determined as 86.6 µM; in the series on Entamoeba histolytica it was 0.46 µM.

With `c1coc(-c2c[se]nn2)c1`, the IC50 with Entamoeba histolytica is 5.72 µM.

`c1csc(-c2c[se]nn2)c1`: the IC50 in the series on Entamoeba histolytica came to 5.28 µM.

Regarding `c1ccc(-c2csnn2)cc1`, the IC50 in the series with Entamoeba histolytica came to 7.46 µM. The IC50 values of the last two compounds are within 1.5-fold of each other.

In the series on MCF7, `Cc1ncc([N+](=O)[O-])n1CCO` [METRONIDAZOLE] came in with an IC50 greater than 100 µM. Moreover, the viability at 48 h in series [1] is 100%.
